Reference: patent US20220064736A1, “UROTHELIAL CANCER AND METHODS OF DETECTION AND TARGETED THERAPY” (THE JOHNS HOPKINS UNIVERSITY, priority 2015, published 2022)

What was measured:
[1] = test system: GULP1 localization in T24 cells; assay: Confocal imaging of GULP1 subcellular localization upon blocking nuclear export; format: cell-based, human; conditions: treatment for 5 hours
Method: To this end, the subcellular localization of GULP1 was determined by confocal microscopy analysis and nuclear-cytoplasm fractionation experiments using T24 cell line. The findings indicate that GULP1 localized in both nucleus and cytoplasm (FIG. 3d, upper and lower panel, and FIG. 8a). Ubiquitous localization pattern of GULP1 was further confirmed by performing immunofluorescence and confocal microscopy analysis by using two different antibodies against GULP1 and upon blocking nuclear export machinery by Leptomycin B (LMB) treatment for 5 hours (T24 cells in FIG. 3d and FIG. 8b).
Cells were grown on glass coverslips for 72 hs. After fixation in 4% paraformaldehyde, they were incubated in PBS 0.2% Glycine, permeabilized with PBS 10% Triton X100 for 10 minutes and incubated in Blocking buffer (PBS 3% BSA, 10% goat serum, 0.02% Tween) for 2-3 hours at r.t.
Incubation with the indicated primary antibodies (see Table 5) has been performed at 4° C. in the dark. After 5 washing with PBS 0.02% Tween, coverslips have been incubated with the indicated secondary antibodies (Table 5) for 1 h at r.t. For the case actin cytoskeleton analysis, after fixation, the coverslips have been incubated 90 minutes with Alexa Fluor® 488 Phalloidin (Life Technologies, 1:1000 in PBS). […] Slides were examined and photographed using a fluorescence microscope.

[2] = test system: T24 shGULP1 cells versus T24 shScramble cells; assay: MTT viability assay upon treatment with serial dilution of cisplatin; format: cell-based, human; conditions: T24 shGULP1 vs T24 shScramble, different concentrations of CDDP
[3] = test system: muscle-invasive bladder cancer (MIUC); conditions: patients with MIUC, neo-adjuvant chemotherapy preceding radical surgery; cited from earlier work
GULP1 transcript = assay: 5-Aza-dC treatment of UC cell lines, GULP1 expression by RT-PCR; format: cell-based, human
Method: Twenty four hours before treatment, cells were plated at low density (1-3×10^6 cells, dependent on growth characteristics of the respective cell line) in T75 cm^2 Tissue Culture Flasks (BD Biosciences, Bedford, Mass., USA). Stock solutions of 100 mM 5-Aza-dC (Sigma-Aldrich, St. Louis, Mo.) and 5 mM Trichostatin A (TSA) (Sigma-Aldrich) were prepared with DMSO (Sigma-Aldrich). Immediately before addition to the cell culture medium, appropriate aliquots of the stock solutions were dissolved in PBS (pH 7.5). Cells were treated with 5 μM 5-Aza-dC for 3 to 5 days. Medium with 5-Aza-dC was changed daily. Additionally, combination treatment with 5-Aza-dC and TSA was performed by adding 5 μM of 5-Aza-dC daily for 5 days and TSA (300 nmol/L) was added to the medium for the final 24 hours. Cells were harvested 24 hours after the last day of treatment (5-Aza-dC only and 5-Aza-dC+TSA) for RNA extraction and the analysis of gene expression by Reverse Transcriptase-PCR (RT-PCR).
Total RNA (500 ng) from cell lines and from bladder tissue were reverse-transcribed with qScript cDNA SuperMix™ (Quanta BioSciences) kit. The primers were designed by using Primer3 software. Actin type B (ACTB) was used as a loading control. […] Expression of the gene of interest was quantified by 2^−ΔΔCT method.

[4] = biological target: T1, BTB and CNC homology 1 (Bach1) (UniProt O14867 1-736); assay: co-immunoprecipitation of endogenous GULP1 from whole-cell lysates (BFTC905, BFTC909, HUC1, T24), western blot
T1 construct: Endogenous protein from lysates of human cell lines
T1 sequence (looked up): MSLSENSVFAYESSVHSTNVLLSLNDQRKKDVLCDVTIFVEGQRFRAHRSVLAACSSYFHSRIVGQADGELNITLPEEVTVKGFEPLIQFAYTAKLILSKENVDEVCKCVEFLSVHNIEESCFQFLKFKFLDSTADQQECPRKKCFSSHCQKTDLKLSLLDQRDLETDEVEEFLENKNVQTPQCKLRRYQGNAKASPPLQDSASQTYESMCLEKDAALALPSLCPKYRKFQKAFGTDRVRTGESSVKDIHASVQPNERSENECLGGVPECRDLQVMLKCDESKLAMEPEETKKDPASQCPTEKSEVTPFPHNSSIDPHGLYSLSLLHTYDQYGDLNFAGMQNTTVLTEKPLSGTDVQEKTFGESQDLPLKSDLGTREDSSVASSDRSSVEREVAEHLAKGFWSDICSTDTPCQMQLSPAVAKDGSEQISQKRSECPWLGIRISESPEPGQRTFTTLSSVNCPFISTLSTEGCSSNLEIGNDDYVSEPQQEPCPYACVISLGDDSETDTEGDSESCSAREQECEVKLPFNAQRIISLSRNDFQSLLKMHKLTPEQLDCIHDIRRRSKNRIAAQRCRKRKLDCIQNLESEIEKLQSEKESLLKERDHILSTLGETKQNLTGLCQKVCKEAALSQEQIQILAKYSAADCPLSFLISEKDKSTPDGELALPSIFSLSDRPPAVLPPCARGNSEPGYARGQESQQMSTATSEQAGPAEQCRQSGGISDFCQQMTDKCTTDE
Description: (§1) a. […] Confocal imaging analysis of T24 cells. […] A not related protein antibody was used as a negative control for IP and 10% of whole cell lysate was used as input. d.

[5] = biological target: T2, Nuclear factor E2-related factor 2 (Nrf2) (UniProt Q16236 1-605, limits assumed); assay: as above
T2 construct: Endogenous protein from lysates of human cell lines; also called NFE2L2; NF2EL2
T2 sequence (looked up): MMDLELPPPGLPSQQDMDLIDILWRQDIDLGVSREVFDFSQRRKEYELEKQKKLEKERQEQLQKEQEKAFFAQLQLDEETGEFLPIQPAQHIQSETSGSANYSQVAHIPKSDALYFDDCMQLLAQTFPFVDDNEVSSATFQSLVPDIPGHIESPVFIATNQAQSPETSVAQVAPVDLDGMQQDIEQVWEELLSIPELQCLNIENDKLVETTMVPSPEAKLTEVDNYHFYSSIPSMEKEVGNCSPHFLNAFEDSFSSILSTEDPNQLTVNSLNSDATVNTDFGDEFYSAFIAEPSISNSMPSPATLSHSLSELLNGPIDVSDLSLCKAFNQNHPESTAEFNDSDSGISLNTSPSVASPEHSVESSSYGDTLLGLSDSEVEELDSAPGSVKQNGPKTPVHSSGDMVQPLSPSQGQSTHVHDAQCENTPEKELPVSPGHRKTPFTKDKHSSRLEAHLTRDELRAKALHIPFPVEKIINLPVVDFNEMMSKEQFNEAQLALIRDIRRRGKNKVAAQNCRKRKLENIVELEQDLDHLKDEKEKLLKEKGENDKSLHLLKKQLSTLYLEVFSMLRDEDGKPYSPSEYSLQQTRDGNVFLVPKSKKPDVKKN
Description: as §1

With CCC(=C/[C@H](C)C/C=C/C(C)=C/[C@@H](C)C(=O)[C@@H](C)[C@H](O)[C@@H](C)C/C(C)=C/C(=O)O)/C=C/[C@@H]1OC(=O)C=C[C@@H]1C [Leptomycin B] the GULP1 nuclear export [1] was “prevent GULP1 from going out from nucleus”.

For [NH2][Pt]([NH2])([Cl])[Cl] [CDDP, Cisplatin], the “Cell viability of GULP1 knock-down cells compared with control cells” value [2] is given as “significantly higher viability than the control cells” and the “overall long-term survival benefit” value [3] is given as 6%.

With Nc1ncn([C@H]2C[C@H](O)[C@@H](CO)O2)c(=O)n1 [5-aza-dC, 5-Aza-2′-deoxycytidine] the GULP1 transcript level (GULP1 transcript; HT-1376 and SW780 UC cells, 5-azadC with or without trichostatin A (TSA), consistent with promoter demethylation) was “several fold increase in GULP1 transcript” and the GULP1 reactivation (GULP1 transcript; UC cell lines) was “reactivation of GULP1 was observed”.

B1: PTB Domain-Containing Engulfment Adaptor Protein1 (GULP1) (other, human, UniProt Q9UBP9 1-304, looked up)
chain: MNRAFSRKKDKTWMHTPEALSKHFIPYNAKFLGSTEVEQPKGTEVVRDAVRKLKFARHIKKSEGQKIPKVELQISIYGVKILEPKTKEVQHNCQLHRISFCADDKTDKRIFTFICKDSESNKHLCYVFDSEKCAEEITLTIGQAFDLAYRKFLESGGKDVETRKQIAGLQKRIQDLETENMELKNKVQDLENQLRITQVSAPPAGSMTPKSPSTDIFDMIPFSPISHQSSMPTRNGTQPPPVPSRSTEIKRDLFGAEPFDPFNCGAADFPPDIQSKLDEMQEGFKMGLTLEGTVFCLDPLDSRC
notes: Endogenous protein from cell lysates; also called engulfment adaptor PTB domain containing 1; human homologue of CED-6
B1: no binding [4]; no binding [5].
